Values joined by “and” are separate entries in the source; they are usually repeats but may differ in a detail not shown here. Equal entries are not always repeated.
Legend:
[1] = test system: Zika virus; assay: Functional CPE-based assay to measure dose dependent changes in antiviral-drug inhibitory efficacy against Zika virus MR766 in Vero E6 miRFP670 cells. Cells are treated with antiviral candidates that are serially diluted. EC50 is reported via analysis of MTS assay as a readout of CPE. The assay has been performed by KU Leuven.; assay type: organism-based, Chlorocebus sabaeus, Vero C1008; conditions: Zika virus; for EC50: Vero C1008
[2] = test system: Zika virus; assay: EC50 is reported via analysis of immunofluorescence staining. The assay has been performed by Icahn School of Medicine at Mount Sinai.; assay type: functional, organism-based, Chlorocebus sabaeus, VeroE6/TMPRSS2; conditions: for EC90: P-gp concentration 2 uM, P-gp inhibitor Elacidar
[3] = test system: dengue virus type 2; assay: Functional immunofluorescence assay to measure dose dependent changes in antiviral-drug inhibitory efficacy against Dengue virus type 2 Thailand/16681/84 in Vero E6/TMPRSS2 cells (cotreated with P-gp inhibitor, Elacridar). Cells are treated with antiviral candidates that are serially diluted, following infection, cells are fixed. EC50 is reported via analysis of immunofluorescence staining. The assay has been performed by Icahn School of Medicine at Mount Sinai.; assay type: organism-based, Chlorocebus sabaeus, VeroE6/TMPRSS2; conditions: Dengue virus; for EC90: P-gp concentration 2 uM, P-gp inhibitor Elacidar
[4] = test system: Zika virus; assay: Functional CPE-based assay to measure dose dependent changes in antiviral-drug inhibitory efficacy against Zika virus MR766 in Vero E6 miRFP670 cells (cotreated with P-gp inhibitor, CP100356). Cells are treated with antiviral candidates that are serially diluted. EC50 is reported via analysis of MTS assay as a readout of CPE. The assay has been performed by KU Leuven.; assay type: organism-based, Chlorocebus sabaeus, Vero C1008; conditions: Zika virus; for EC90: P-gp concentration 500 nM, P-gp inhibitor CP100356
[5] = test system: dengue virus type 2; assay: Functional assay to measure dose dependent changes in antiviral-drug inhibitory efficacy against Dengue virus type 2 New Guinea C in Vero E6 miRFP670 cells (cotreated with P-gp inhibitor, CP100356). Cells are treated with antiviral candidates that are serially diluted, following infection, cells are fixed. EC50 is reported via analysis of fluorescence intensity using high-content imager. The …; assay type: organism-based, Chlorocebus sabaeus, Vero C1008; conditions: Dengue virus

Structure (SMILES): O=C(Nc1ccc2c(c1)CNCC2)c1cc(Cl)cc2[nH]ncc12
- EC50 [1]: > 50 µM
- EC90 ([1]; Vero C1008, Maximum measured 0.588 %, Minimum measured -2.808 %): > 50 µM

Structure (SMILES): CC(C)(C)c1cc(Br)cc(C(=O)Nc2ccc3c(c2)CNC3)c1
- EC50 [1]: > 50 µM
- EC90 ([1]; Vero C1008, Baseline response 0 %, Hill slope -3.526, Maximum measured 2.777 %, Maximum response 100 %, Minimum measured -2.992 %, R squared 0.044): > 50 µM

Structure (SMILES): CN1Cc2ccc(NC(=O)c3cc(Cl)cc4[nH]ncc34)cc2C1
- EC50 [1]: > 50 µM
- EC90 ([1]; Vero C1008, Baseline response 0 %, Hill slope -0.359, Maximum measured 1.713 %, Maximum response 100 %, Minimum measured -2.397 %, R squared 0.026): > 50 µM

Structure (SMILES): N#CCCNC(=O)[C@H](Nc1ccc2c(c1)CNC2)c1cc(Cl)cc(C2CC2)c1
- EC90 ([2]; Zika virus, VeroE6/TMPRSS2, Maximum measured 63.585 %, Minimum measured 35.457 %): > 5.56 µM
- EC90 ([2]; Zika virus, VeroE6/TMPRSS2, Baseline response 0 %, Hill slope -0.414, Maximum measured 108.813 %, Maximum response 100 %, Minimum measured 38.683 %, R squared 0.619): > 16.7 µM
- EC50 ([2]; veroe6/tmprss2): > 5.56 µM and 2.54 µM
- EC50 ([3]; VeroE6/TMPRSS2): > 50 µM
- EC90 ([3]; VeroE6/TMPRSS2, Maximum measured 184.621 %, Minimum measured 81.605 %): > 50 µM
- EC50 ([4]; Vero C1008): 4.22 µM
- EC90 ([4]; Vero C1008, Baseline response 0 %, EC90 CI (lower) 2.191 uM, EC90 CI (upper) 28.402 uM, Hill slope 3.509, Maximum measured 177.981 %, Maximum response 100 %, Minimum measured 1.478 %, R squared 0.727): 7.89 µM
- EC50 ([5]; Vero C1008): > 50 µM
- EC90 ([5]; Vero C1008, Maximum measured 137.124 %, Minimum measured 107.523 %, P-gp concentration 500 nM, P-gp inhibitor CP100356): > 50 µM

Structure (SMILES): O=C(Nc1ccc2c(c1)CNC2)c1cc(F)cc2[nH]nnc12
- EC50 ([2]; Zika virus, VeroE6/TMPRSS2): > 50 µM
- EC90 ([2]; Zika virus, VeroE6/TMPRSS2, Maximum measured 143.994 %, Minimum measured 34.535 %): > 50 µM
- EC50 ([3]; VeroE6/TMPRSS2): > 50 µM
- EC90 ([3]; VeroE6/TMPRSS2, Maximum measured 175.922 %, Minimum measured 81.786 %): > 50 µM
- EC90 ([3]; VeroE6/TMPRSS2, Baseline response 0 %, Hill slope 0.135, Maximum measured 108.442 %, Maximum response 100 %, Minimum measured 80.171 %, R squared 0.018): > 50 µM
- EC50 ([4]; Vero C1008): > 50 µM
- EC90 ([4]; Vero C1008, Maximum measured -0.357 %, Minimum measured -5.629 %): > 50 µM
- EC50 ([5]; Vero C1008): > 50 µM
- EC90 ([5]; Vero C1008, Maximum measured 103.909 %, Minimum measured 99.111 %, P-gp concentration 500 nM, P-gp inhibitor CP100356): > 50 µM

Structure (SMILES): CC(C)c1cc(Br)cc(C(=O)Nc2ccc3c(c2)CNC3)c1
- EC50 [1]: > 50 µM
- EC90 ([1]; Vero C1008, Baseline response 0 %, Hill slope -0.823, Maximum measured 6.311 %, Maximum response 100 %, Minimum measured -3.726 %, R squared 0.279): > 50 µM

Structure (SMILES): Cn1cc(CNC(=O)[C@H](Nc2ccc3c(c2)CNC3)c2cc(Cl)cc(C3CC3)c2)cn1
- EC90 ([2]; Zika virus, VeroE6/TMPRSS2, Maximum measured 136.439 %, Minimum measured 82.812 %): > 5.56 µM
- EC90 ([2]; Zika virus, VeroE6/TMPRSS2, Maximum measured 172.39 %, Minimum measured 65.114 %): > 50 µM
- EC50 ([2]; veroe6/tmprss2): > 50 µM
- EC50 ([3]; VeroE6/TMPRSS2): > 50 µM
- EC90 ([3]; VeroE6/TMPRSS2, Maximum measured 219.34 %, Minimum measured 69.596 %): > 50 µM
- EC50 ([4]; Vero C1008): > 50 µM
- EC90 ([4]; Vero C1008, Maximum measured -1.973 %, Minimum measured -8.89 %): > 50 µM
- EC50 ([5]; Vero C1008): > 50 µM
- EC90 ([5]; Vero C1008, Maximum measured 110.921 %, Minimum measured 103.415 %, P-gp concentration 500 nM, P-gp inhibitor CP100356): > 50 µM

Structure (SMILES): COC(=O)CNC(=O)[C@H](Nc1ccc2c(c1)CNC2)c1cc(Cl)cc(C2CC2)c1
- EC90 ([2]; Zika virus, VeroE6/TMPRSS2, Maximum measured 147.006 %, Minimum measured 69.301 %): > 16.7 µM
- EC90 ([2]; Zika virus, VeroE6/TMPRSS2, Baseline response 0 %, Hill slope -5.229, Maximum measured 154.716 %, Maximum response 100 %, Minimum measured 79.745 %, R squared 0.023): > 5.56 µM
- EC50 ([2]; veroe6/tmprss2): > 16.7 µM
- EC50 ([3]; VeroE6/TMPRSS2): > 50 µM
- EC90 ([3]; VeroE6/TMPRSS2, Maximum measured 158.675 %, Minimum measured 120.715 %): > 50 µM
- EC50 ([4]; Vero C1008): > 50 µM
- EC90 ([4]; Vero C1008, Baseline response 0 %, Hill slope 2.666, Maximum measured 16.971 %, Maximum response 100 %, Minimum measured -1.569 %, R squared 0.882): > 50 µM
- EC50 ([5]; Vero C1008): > 50 µM
- EC90 ([5]; Vero C1008, Maximum measured 109.152 %, Minimum measured 106.626 %, P-gp concentration 500 nM, P-gp inhibitor CP100356): > 50 µM

Structure (SMILES): N#C[C@H](Nc1cncc(-c2nn[nH]n2)c1)c1cc(Cl)cc(NC(=O)OCc2ccccc2)c1
- EC50 [1]: > 50 µM
- EC90 ([1]; Vero C1008, Baseline response 0 %, Hill slope -0.546, Maximum measured 2.599 %, Maximum response 100 %, Minimum measured -1.254 %, R squared 0.412): > 50 µM

Structure (SMILES): O=C(Nc1cc(Cl)cc([C@H]2[C@H](CO)[C@@H]2c2cccc(-c3nn[nH]n3)c2)c1)OCc1ccccc1
- EC50 [1]: > 50 µM
- EC90 ([1]; Vero C1008, Baseline response 0 %, Hill slope -0.077, Maximum measured 3.793 %, Maximum response 100 %, Minimum measured 1.644 %, R squared 0.146): > 50 µM

Structure (SMILES): NCc1cccc(NC(=O)[C@H](NC(=O)OCc2ccccc2)c2ccc(Br)c(Cl)c2)c1
- EC50 [1]: > 50 µM
- EC90 ([1]; Vero C1008, Baseline response 0 %, Hill slope 4.111, Maximum measured 16.618 %, Maximum response 100 %, Minimum measured -5.242 %, R squared 0.822): > 50 µM
- EC50 ([5]; Vero C1008): 27.9 µM
- EC90 ([5]; Vero C1008, Baseline response 0 %, Hill slope -1.252, Maximum measured 107.5 %, Maximum response 100 %, Minimum measured 22.965 %, P-gp concentration 500 nM, R squared 0.543, P-gp inhibitor CP100356): > 50 µM

Structure (SMILES): COc1cccc(-c2ccc([C@@H](NC(=O)OCc3ccccc3)C(=O)Nc3cccc(CN)c3)cc2)c1
- EC50 [1]: > 50 µM
- EC90 ([1]; Vero C1008, Maximum measured 5.224 %, Minimum measured -9.76 %): > 50 µM
- EC50 ([5]; Vero C1008): 11.3 µM
- EC90 ([5]; Vero C1008): 13 µM

Structure (SMILES): COc1cc(-c2cc(Cl)cc(NC(=O)OCc3ccccc3)c2)c(OC)cc1CC(=O)O
- EC50 [1]: > 50 µM
- EC90 ([1]; Vero C1008, Baseline response 0 %, Hill slope 0.25, Maximum measured 21.22 %, Maximum response 100 %, Minimum measured 1.079 %, R squared 0.113): > 50 µM

Structure (SMILES): CCNC(=O)Nc1cc(Cl)cc(C(=O)Nc2cccc(CN)c2)c1
- EC50 [1]: > 50 µM
- EC90 ([1]; Vero C1008, Baseline response 0 %, Hill slope -0.392, Maximum measured 2.06 %, Maximum response 100 %, Minimum measured -2.343 %, R squared 0.131): > 50 µM
- EC50 ([5]; Vero C1008): > 50 µM
- EC90 ([5]; Vero C1008, Maximum measured 108.516 %, Minimum measured 107.498 %, P-gp concentration 500 nM, P-gp inhibitor CP100356): > 50 µM

Structure (SMILES): NCc1cccc(NC(=O)[C@@H](NC(=O)OCc2ccccc2)c2ccc(-c3cc4cccnc4s3)cc2)c1
- EC50 [1]: > 50 µM
- EC90 ([1]; Vero C1008, Baseline response 0 %, Hill slope 2.61, Maximum measured 41.685 %, Maximum response 100 %, Minimum measured -5.482 %, R squared 0.949): > 50 µM
- EC50 ([5]; Vero C1008): > 50 µM
- EC90 ([5]; Vero C1008, Baseline response 0 %, Hill slope -1.813, Maximum measured 108.419 %, Maximum response 100 %, Minimum measured 62.17 %, P-gp concentration 500 nM, R squared 0.703, P-gp inhibitor CP100356): > 50 µM

Structure (SMILES): O=C(Nc1cc(Cl)cc(-c2cccc3c(C(=O)O)cccc23)c1)OCc1ccccc1
- EC50 [1]: > 50 µM
- EC90 ([1]; Vero C1008, Maximum measured -0.778 %, Minimum measured -5.402 %): > 50 µM

Structure (SMILES): NCc1cccc(NC(=O)[C@H](NC(=O)OCc2ccccc2)C2CCC(c3ccccc3)CC2)c1 (some centres not stated)
- EC50 [1]: > 50 µM
- EC90 ([1]; Vero C1008, Baseline response 0 %, Hill slope 12.54, Maximum measured 11.506 %, Maximum response 100 %, Minimum measured -10.271 %, R squared 0.094): > 50 µM
- EC50 ([5]; Vero C1008): 6.69 µM
- EC90 ([5]; Vero C1008, Baseline response 0 %, EC90 CI (lower) 1.121 uM, EC90 CI (upper) 23.089 uM, Hill slope -8.04, Maximum measured 108.249 %, Maximum response 100 %, Minimum measured 2.62 %, P-gp concentration 500 nM, R squared 0.836, P-gp inhibitor CP100356): 8.79 µM

Source: ChEMBL document CHEMBL5661943, “ASAP - In vitro antiviral effect” (2024)
